Laboratory results as given in patent publication US9556135B2, “Amino-dihydrothiazine and amino-dioxido dihydrothiazine compounds as beta-secretase antagonists and methods of use” (Amgen Inc., priority 2012, dated 2017).
Where two headings read alike, the source gives them in different places.

Columns and labels:
[1] = test system: pigment epithelium of the rat's eye; settings: higher compound dose given for three months; cited from earlier work
Cathepsin D (Cat D) = Cathepsin D (Cat D) (Homo sapiens (Human), UniProt P07339); test: In vitro enzymatic Cathepsin D (Cat D) FRET assay; type: biochemical; settings: read-out: CatD IC50
Description: In Vitro Enzymatic Cathepsin D (Cat D) FRET (Fluorescence Resonance Energy Transfer) Assay Recombinant Cat D was expressed in CHO cells. […] The Cat D enzyme (9 nM) is pre-incubated for one hour with inhibitors, typically in about 1 uL of DMSO according to a serial dilution, is added thereto. […] The FRET assay is terminated with by addition of Tris buffer, which raises the pH to neutrality, and the fluorescence is determined. The FRET substrate is a peptide with commercially available fluorophore and quencher, on opposite sides of the BACE cleavage site. The Cat D substrate peptide sequence is based on sequence #1 of Table 1 from Gulnik et al. […] Where available, the in-vitro Cat D FRET assay data for each of the Examples, conducted by the first procedure, is provided.

[2] = test system: Aβ40 in conditioned medium of cells stably expressing Amyloid Precursor Protein (APP); test: In vitro BACE cell-based assay (HEK cell assay), Aβ40 sandwich ELISA
Description: In Vitro BACE Cell-Based Assay
The cell-based assay measures inhibition or reduction of Aβ40 in conditioned medium of test compound treated cells expressing amyloid precursor protein.
Cells stably expressing Amyloid Precursor Protein (APP) were plated at a density of 40K cells/well in 96 well plates (Costar). The cells were cultivated for 24 hours at 37° C. and 5% CO2 in DMEM supplemented with 10% FBS. The test compounds were then added to cells in 10-point dose response concentrations with the starting concentration being either 100 μM or 10 μM. The compounds were diluted from stock solutions in DMSO and the final DMSO concentration of the test compounds on cells was 0.1%. After 24 h of incubation with the test compounds the supernatant conditioned media was collected and the Aβ 40 levels were determined using a sandwich ELISA. The IC50 of the compound was calculated from the percent of control or percent inhibition of Aβ 40 as a function of the concentration of the test compound.
The sandwich ELISA to detect Aβ 40 was performed in 96 well microtiter plates, which were pre-treated with goat anti-rabbit IgG (Pierce). The capture and detecting antibody pair that were used to detect Aβ 40 from cell supernatants were affinity purified pAb40 (Biosource) and biotinylated 6E10 (Signet Labs Inc.), respectively. The optimal concentration for the pAb40 antibody was 3 μg/ml in Superblock/TBS (Pierce) that was supplemented with 0.05% Tween 20 (Sigma).
Cellular supernatants were incubated with the capture antibody for 3 h at 4° C., followed by 3 wash steps in TBS-tween (0.05%). The detecting antibody incubation was for 2 h at 4° C., again followed by the wash steps as described previously. The final readout of the ELISA is Time-Resolved Fluorescence (counts per minute) using Delfia reagents Streptavidin-Europium and Enhancement solutions (Perkin Elmer) and the Victor 2 multilabel counter (Perkin Elmer).

[3] = target: Beta Secretase enzyme (BACE1) (Homo sapiens (Human), UniProt P56817); test: In vitro enzymatic BACE FRET assay; type: biochemical
Description: In Vitro Enzymatic BACE FRET (Fluorescence Resonance Energy Transfer) Assay (Enzyme Assay Data in the Example Tables I and II)
The assay buffer used in this screen is 0.05 M acetate, pH 4.2, 10% DMSO final, 100 uM genapol (which is a nonionic detergent, below its Critical Micelle Concentration). […] This assay is effectively started by the addition of FRET substrate (50 nM) and the combination is incubated for one hour. The FRET assay is terminated with by addition of Tris buffer, which raises the pH to neutrality, and the fluorescence is determined. The FRET substrate is a peptide with commercially available fluorophore and quencher, on opposite sides of the BACE cleavage site. Proteolytic cleavage of the FRET substrate releases quenching of fluorescence (excitation […] and […]).

Aβ in lumbar CSF = settings: after oral dosing of 30 or 90 mg, healthy volunteers; cited from earlier work
[4] = Homo sapiens, HEK293, average IC50, HEK cell assay

Chain of Beta Secretase enzyme (BACE1) (P56817 46-501): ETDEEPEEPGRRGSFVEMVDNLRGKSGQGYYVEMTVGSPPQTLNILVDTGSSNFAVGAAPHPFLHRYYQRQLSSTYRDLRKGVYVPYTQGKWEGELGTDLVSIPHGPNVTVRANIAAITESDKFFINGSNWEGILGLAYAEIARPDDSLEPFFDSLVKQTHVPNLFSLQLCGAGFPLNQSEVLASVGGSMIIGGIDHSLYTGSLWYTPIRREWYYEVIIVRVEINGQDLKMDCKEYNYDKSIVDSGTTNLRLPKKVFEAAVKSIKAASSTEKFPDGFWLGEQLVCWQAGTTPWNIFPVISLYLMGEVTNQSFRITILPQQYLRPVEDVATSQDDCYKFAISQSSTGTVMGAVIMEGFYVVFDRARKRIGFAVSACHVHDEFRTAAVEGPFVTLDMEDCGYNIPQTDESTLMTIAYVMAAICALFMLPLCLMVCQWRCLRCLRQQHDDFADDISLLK
Chain of Cathepsin D (Cat D) (P07339 65-412, species assumed): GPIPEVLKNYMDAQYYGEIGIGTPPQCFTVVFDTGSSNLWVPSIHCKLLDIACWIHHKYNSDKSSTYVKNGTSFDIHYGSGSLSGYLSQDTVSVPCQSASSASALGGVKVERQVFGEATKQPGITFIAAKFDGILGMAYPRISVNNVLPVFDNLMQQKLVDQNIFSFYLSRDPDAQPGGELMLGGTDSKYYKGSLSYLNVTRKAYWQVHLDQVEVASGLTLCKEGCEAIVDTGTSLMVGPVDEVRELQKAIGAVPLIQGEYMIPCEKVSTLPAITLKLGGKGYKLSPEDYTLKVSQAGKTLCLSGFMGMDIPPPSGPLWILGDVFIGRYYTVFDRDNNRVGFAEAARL

Compound | IC50 (Cathepsin D (Cat D); Cathepsin D FRET assay) [µM] | IC50 [2, 4] [µM] | IC50 ([3]; average IC50, enzyme assay) [µM] | further results
C[C@@]1(c2cc(-c3cncnc3)c(F)cc2F)CCSC(N)=N1 [LY 2811376] |  |  |  | rat toxicology finding [1]: damaged the pigment epithelium of the rat's eye
N-(3-((7R)-9-amino-7-(fluoromethyl)-5,5-dioxido-5-thia-8-azaspiro[3.5]non-8-en-7-yl)-4-fluorophenyl)-5-(difluoromethoxy)-3-methyl-2-pyridinecarboxamide,N-(3-((7S)-9-amino-7-(fluoromethyl)-5,5-dioxido-5-thia-8-azaspiro[3.5]non-8-en-7-yl)-4-fluorophenyl)-5-(difluoromethoxy)-3-methyl-2-pyridinecarboxamide [Example 410] |  |  |  | IC50 (Cathepsin D (Cat D)): 170 µM; IC50 ([2]; average IC50): 0.0119 µM; IC50 ([3]; average IC50): 0.0023 µM
C[C@@]1(c2cc(-c3cncnc3)c(F)cc2F)CCSC(N)=N1 [LY2811376, (S)-4-(2,4-difluoro-5-pyrimidin-5-yl-phenyl)-4-methyl-5,6-dihydro-4H-[1,3]thiazin-2-ylamine] |  |  |  | Aβ reductions in lumbar CSF (Aβ in lumbar CSF): Prominent and long-lasting Aβ reductions in lumbar CSF
N-(3-((4aR,7aS)-3-amino-2,2-dimethyl-1,1-dioxido-7,7a-dihydro-2H-furo[3,4-b][1,4]thiazin-4a(5H)-yl)-4-fluorophenyl)-3-chloro-1,7-naphthyridin-8-amine,N-(3-((4aS,7aR)-3-amino-2,2-dimethyl-1,1-dioxido-7,7a-dihydro-2H-furo[3,4-b][1,4]thiazin-4a(5H)-yl)-4-fluorophenyl)-3-chloro-1,7-naphthyridin-8-amine [Example 429] |  |  | 0.0046 | IC50 (Cathepsin D (Cat D)): 131 µM; IC50 ([2]; average IC50, cell assay): 0.157 µM

The next lines start with results.

IC50 (Cathepsin D (Cat D); Cathepsin D FRET assay) [µM] | IC50 [2, 4] [µM] | IC50 ([3]; average IC50, enzyme assay) [µM] | Compound | further results
67.4 | 0.006 | 0.004 | Cc1c(C(=O)Nc2ccc(F)c([C@]3(C)CS(=O)(=O)[C@]4(C[C@@H](F)C4)C(N)=N3)c2)nc2ccc(Cl)cn12 [Example 464, N-(3-((2 S,4s,7R)-9-amino-2-fluoro-7-methyl-5,5-dioxido-5-thia-8-azaspiro[3.5]non-8-en-7-yl)-4-fluorophenyl)-6-chloro-3-methylimidazo[1,2-a]pyridine-2-carboxamide] | 
399 | 0.028 | 0.0157 | COc1cnc(C(=O)Nc2ccc(F)c([C@]3(C)CS(=O)(=O)[C@]4(C[C@H](OC)C4)C(N)=N3)c2)c(C)c1 [Example 461, N-(3-((2R,4r,7R)-9-amino-2-methoxy-7-methyl-5,5-dioxido-5-thia-8-azaspiro[3.5]non-8-en-7-yl)-4-fluorophenyl)-5-methoxy-3-methylpicolinamide] | 
466 | 0.0349 | 0.004 | CO[C@H]1C[C@]2(C1)C(N)=N[C@](C)(c1cc(NC(=O)c3ncc(Cl)cc3C)ccc1F)CS2(=O)=O [Example 460, N-(3-((2R,4r,7R)-9-amino-2-methoxy-7-methyl-5,5-dioxido-5-thia-8-azaspiro[3.5]non-8-en-7-yl)-4-fluorophenyl)-5-chloro-3-methylpicolinamide] | 
